From ChEMBL document CHEMBL1147635, “KMI-358 and KMI-370, highly potent and small-sized BACE1 inhibitors containing phenylnorstatine” (Bioorg Med Chem Lett, 2004)
*1 amine or outer side, *2 acyl side, *3 side chain or, on linkers, in order; H or OH if unused. Where a SMILES comes first, the peptide text is derived from it. [ ]: non-standard residue; d: D form. β3hPhe(2R-OH) = O=C([C@H](O)[C@H](Cc1ccccc1)N[*:1])[*:2]; Dap = NC[C@H](N)C(=O)O; CO = O=C([*:1])[*:2]

Molecular target: T1, Beta-secretase 1 (Homo sapiens, UniProt P56817)
Assay: Inhibition of Beta-secretase 1 at 2 uM concentration

T1 sequence (P56817 whole entry): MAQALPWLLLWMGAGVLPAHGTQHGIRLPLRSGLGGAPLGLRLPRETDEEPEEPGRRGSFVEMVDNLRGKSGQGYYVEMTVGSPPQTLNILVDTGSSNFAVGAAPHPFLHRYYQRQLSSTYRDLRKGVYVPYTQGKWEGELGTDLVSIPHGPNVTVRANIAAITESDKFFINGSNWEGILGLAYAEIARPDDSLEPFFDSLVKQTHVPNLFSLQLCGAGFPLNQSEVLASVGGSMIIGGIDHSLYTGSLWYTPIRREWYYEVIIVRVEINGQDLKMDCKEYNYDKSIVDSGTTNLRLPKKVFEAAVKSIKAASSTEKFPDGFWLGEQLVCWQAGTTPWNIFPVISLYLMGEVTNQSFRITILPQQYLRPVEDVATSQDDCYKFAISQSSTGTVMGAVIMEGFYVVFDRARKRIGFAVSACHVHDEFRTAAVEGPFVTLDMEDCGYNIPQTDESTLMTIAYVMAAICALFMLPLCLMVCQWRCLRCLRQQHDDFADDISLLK

| SMILES | inhibition |
| --- | --- |
| CC(C)C[C@H](NC(=O)[C@@H](NC(=O)[C@@H](N)CCC(=O)O)C(C)C)C(=O)N[C@@H](Cc1ccccc1)[C@@H](O)C(=O)N[C@@H](CC(=O)O)C(=O)NC(C)C(=O)NCC(=O)N[C@@H](Cc1ccccc1)C(=O)O (single isomer, unassigned) | 56% |
| CC(C)C[C@H](NC(=O)[C@@H](NC(=O)CN)C(C)C)C(=O)N[C@@H](Cc1ccccc1)[C@@H](O)C(=O)N[C@@H](CC(=O)O)C(=O)N[C@@H](C)C(=O)N[C@@H](CCC(=O)O)C(=O)N[C@@H](Cc1ccccc1)C(=O)O (HELM PEPTIDE1{G.V.L.[O=C([C@H](O)[C@H](Cc1ccccc1)N[*:1])[*:2]].D.A.E.F}$$$$V2.0) | < 20% |
| CC(C)C[C@H](NC(=O)[C@@H](NC(=O)[C@@H](N)CCC(=O)O)C(C)C)C(=O)N[C@@H](Cc1ccccc1)[C@@H](O)C(=O)Nc1cc(C(=O)O)cc(C(=O)O)c1 | > 90% |
| CC(C)C[C@H](NC(=O)[C@@H](NC(=O)[C@@H](N)CCC(N)=O)C(C)C)C(=O)N[C@@H](Cc1ccccc1)[C@@H](O)C(=O)N[C@@H](CC(=O)O)C(=O)N[C@@H](C)C(=O)N[C@@H](CCC(=O)O)C(=O)O (HELM PEPTIDE1{Q.V.L.[O=C([C@H](O)[C@H](Cc1ccccc1)N[*:1])[*:2]].D.A.E}$$$$V2.0) | < 20% |
| CC(C)[C@H](NC(=O)[C@@H](N)CCC(=O)O)C(=O)NCC(=O)N[C@@H](Cc1ccccc1)[C@@H](O)C(=O)N[C@@H](CC(=O)O)C(=O)N[C@@H](C)C(=O)N[C@@H](CCC(=O)O)C(=O)N[C@@H](Cc1ccccc1)C(=O)O (HELM PEPTIDE1{E.V.G.[O=C([C@H](O)[C@H](Cc1ccccc1)N[*:1])[*:2]].D.A.E.F}$$$$V2.0) | < 20% |
| CC(C)C[C@H](NC(=O)[C@@H](NC(=O)[C@@H](N)CCC(=O)O)C(C)C)C(=O)N[C@@H](Cc1ccccc1)[C@@H](O)C(=O)Nc1cccc(C(=O)O)c1 (mixture of isomers) | 82% |
| CC(C)C[C@H](NC(=O)[C@@H](NC(=O)[C@@H](N)CCC(=O)O)C(C)C)C(=O)N[C@@H](Cc1ccccc1)[C@@H](O)C(=O)N[C@@H](CC(=O)O)C(=O)N[C@@H](C)C(=O)N[C@@H](CCC(=O)O)C(=O)NCC(=O)O (HELM PEPTIDE1{E.V.L.[O=C([C@H](O)[C@H](Cc1ccccc1)N[*:1])[*:2]].D.A.E.G}$$$$V2.0) | 65% |
| CC(C)C[C@H](NC(=O)[C@@H](NC(=O)[C@@H](N)CCC(=O)O)C(C)C)C(=O)N[C@@H](Cc1ccccc1)[C@@H](O)C(=O)Nc1ccc(C(=O)O)cc1 | 79% |
| CC(C)C[C@H](NC(=O)[C@@H](NC(=O)[C@@H](N)CCCC(=O)O)C(C)C)C(=O)N[C@@H](Cc1ccccc1)[C@@H](O)C(=O)N[C@@H](CC(=O)O)C(=O)N[C@@H](C)C(=O)N[C@@H](CCC(=O)O)C(=O)O (HELM PEPTIDE1{[N[C@@H](CCCC(=O)O)C(=O)[*:2]].V.L.[O=C([C@H](O)[C@H](Cc1ccccc1)N[*:1])[*:2]].D.A.E}$$$$V2.0) | 43% |
| CC(C)C[C@H](NC(=O)[C@@H](NC(=O)CCCC(=O)O)C(C)C)C(=O)N[C@@H](Cc1ccccc1)[C@@H](O)C(=O)N[C@@H](CC(=O)O)C(=O)N[C@@H](C)C(=O)N[C@@H](CCC(=O)O)C(=O)O (HELM PEPTIDE1{[O=C(O)CCCC(=O)[*:2]].V.L.[O=C([C@H](O)[C@H](Cc1ccccc1)N[*:1])[*:2]].D.A.E}$$$$V2.0) | < 20% |
| CC(C)C[C@H](NC(=O)[C@@H](N)C(C)C)C(=O)N[C@@H](Cc1ccccc1)[C@@H](O)C(=O)N[C@@H](CC(=O)O)C(=O)N[C@@H](C)C(=O)N[C@@H](CCC(=O)O)C(=O)N[C@@H](Cc1ccccc1)C(=O)O (HELM PEPTIDE1{V.L.[O=C([C@H](O)[C@H](Cc1ccccc1)N[*:1])[*:2]].D.A.E.F}$$$$V2.0) | < 20% |
| CC(C)C[C@H](NC(=O)[C@@H](NC(=O)[C@@H](N)CCC(=O)O)C(C)C)C(=O)N[C@@H](Cc1ccccc1)[C@@H](O)C(=O)N[C@@H](CC(=O)O)C(=O)NCC(=O)N[C@@H](CCC(=O)O)C(=O)N[C@@H](Cc1ccccc1)C(=O)O (HELM PEPTIDE1{E.V.L.[O=C([C@H](O)[C@H](Cc1ccccc1)N[*:1])[*:2]].D.G.E.F}$$$$V2.0) | 73% |
| CC(C)C[C@H](N)C(=O)N[C@@H](Cc1ccccc1)[C@@H](O)C(=O)N[C@@H](CC(=O)O)C(=O)N[C@@H](C)C(=O)N[C@@H](CCC(=O)O)C(=O)N[C@@H](Cc1ccccc1)C(=O)O (HELM PEPTIDE1{L.[O=C([C@H](O)[C@H](Cc1ccccc1)N[*:1])[*:2]].D.A.E.F}$$$$V2.0) | < 20% |
| CC(C)C[C@H](NC(=O)[C@@H](NC(=O)[C@@H](N)CCC(=O)O)C(C)C)C(=O)N[C@@H](Cc1ccccc1)[C@@H](O)C(=O)N[C@@H](CC(=O)O)C(=O)N[C@@H](C)C(=O)N[C@@H](CCC(=O)O)C(=O)N[C@@H](Cc1ccccc1)C(=O)O (HELM PEPTIDE1{E.V.L.[O=C([C@H](O)[C@H](Cc1ccccc1)N[*:1])[*:2]].D.A.E.F}$$$$V2.0) | < 90% |
| CC(C)C[C@H](NC(=O)[C@@H](NC(=O)[C@@H](N)CCC(=O)O)C(C)C)C(=O)N[C@@H](Cc1ccccc1)[C@@H](O)C(=O)O (mixture of isomers) | 34% |
| CC(C)C[C@H](NC(=O)[C@@H](NC(=O)[C@@H](N)CCC(=O)O)C(C)C)C(=O)N[C@@H](Cc1ccccc1)[C@@H](O)C(=O)NCc1ccc(C(=O)O)cc1 | 52% |
| CC(C)C[C@H](NC(=O)[C@@H](NC(=O)[C@@H](N)CCC(=O)O)C(C)C)C(=O)N[C@@H](Cc1ccccc1)[C@@H](O)C(=O)NCC(=O)N[C@@H](C)C(=O)N[C@@H](CCC(=O)O)C(=O)N[C@@H](Cc1ccccc1)C(=O)O (HELM PEPTIDE1{E.V.L.[O=C([C@H](O)[C@H](Cc1ccccc1)N[*:1])[*:2]].G.A.E.F}$$$$V2.0) | 54% |
| CC(C)C[C@H](NC(=O)[C@@H](NC(=O)[C@@H](N)CCC(=O)O)C(C)C)C(=O)N[C@@H](Cc1ccccc1)[C@@H](O)C(=O)NCc1cccc(C(=O)O)c1 | 64% |
| CC(C)C[C@H](NC(=O)[C@@H](NC(=O)[C@@H](N)CCC(=O)O)C(C)C)C(=O)N[C@@H](Cc1ccccc1)[C@@H](O)C(=O)N[C@@H](CC(=O)O)C(=O)O (HELM PEPTIDE1{E.V.L.[O=C([C@H](O)[C@H](Cc1ccccc1)N[*:1])[*:2]].D}$$$$V2.0) | 61% |
| CC(C)C[C@H](NC(=O)[C@@H](NC(=O)[C@@H](N)CCC(=O)O)C(C)C)C(=O)N[C@@H](Cc1ccccc1)[C@@H](O)C(=O)NCc1ccccc1 | 30% |
| CC(C)C[C@H](NC(=O)CNC(=O)[C@@H](N)CCC(=O)O)C(=O)N[C@@H](Cc1ccccc1)C(O)C(=O)N[C@@H](CC(=O)O)C(=O)NC(C)C(=O)N[C@@H](CCC(=O)O)C(=O)N[C@@H](Cc1ccccc1)C(=O)O (single isomer, unassigned) | < 20% |
| C[C@H](NC(=O)[C@H](CC(=O)O)NC(=O)[C@H](O)[C@@H](N)Cc1ccccc1)C(=O)N[C@@H](CCC(=O)O)C(=O)N[C@@H](Cc1ccccc1)C(=O)O (HELM PEPTIDE1{[N[C@@H](Cc1ccccc1)[C@@H](O)C(=O)[*:2]].D.A.E.F}$$$$V2.0) | < 20% |
| CC(C)C[C@H](NC(=O)[C@@H](NC(=O)[C@@H](N)CNC(=O)O)C(C)C)C(=O)N[C@@H](Cc1ccccc1)[C@@H](O)C(=O)N[C@@H](CC(=O)O)C(=O)N[C@@H](C)C(=O)N[C@@H](CCC(=O)O)C(=O)O (H-[Dap](CO)VL[β3hPhe(2R-OH)]DAE-OH) | > 90% |
| CC(C)C[C@H](NC(=O)[C@@H](NC(=O)[C@@H](N)CCC(=O)O)C(C)C)C(=O)N[C@@H](Cc1ccccc1)[C@@H](O)C(=O)N[C@@H](CC(=O)O)C(=O)N[C@@H](C)C(=O)O (HELM PEPTIDE1{E.V.L.[O=C([C@H](O)[C@H](Cc1ccccc1)N[*:1])[*:2]].D.A}$$$$V2.0) | 46% |
| CC(C)C[C@H](NC(=O)[C@@H](NC(=O)[C@@H](N)CCC(=O)O)C(C)C)C(=O)N[C@@H](Cc1ccccc1)[C@@H](O)C(=O)N[C@@H](CC(=O)O)C(=O)N[C@@H](C)C(=O)N[C@@H](CCC(=O)O)C(=O)O (HELM PEPTIDE1{E.V.L.[O=C([C@H](O)[C@H](Cc1ccccc1)N[*:1])[*:2]].D.A.E}$$$$V2.0) | 60% |
| CC(C)C[C@H](NC(=O)[C@@H](NC(=O)[C@@H](N)CC(=O)O)C(C)C)C(=O)N[C@@H](Cc1ccccc1)[C@@H](O)C(=O)N[C@@H](CC(=O)O)C(=O)N[C@@H](C)C(=O)N[C@@H](CCC(=O)O)C(=O)O (HELM PEPTIDE1{D.V.L.[O=C([C@H](O)[C@H](Cc1ccccc1)N[*:1])[*:2]].D.A.E}$$$$V2.0) | < 20% |

Molecular target: T1, Beta-secretase 1
Assay: Inhibitory concentration of compound against Beta-secretase 1 was evaluated

| SMILES | IC50 |
| --- | --- |
| CC(C)C[C@H](NC(=O)[C@@H](NC(=O)[C@@H](N)CNC(=O)O)C(C)C)C(=O)N[C@@H](Cc1ccccc1)[C@@H](O)C(=O)Nc1cccc(C(=O)O)c1 | 16 nM |
| CC(C)C[C@H](NC(=O)[C@@H](NC(=O)[C@@H](N)CCC(=O)O)C(C)C)C(=O)N[C@@H](Cc1ccccc1)[C@@H](O)C(=O)Nc1cc(C(=O)O)cc(C(=O)O)c1 | 55 nM |
| CC(C)C[C@H](NC(=O)[C@@H](NC(=O)[C@@H](N)CNC(=O)O)C(C)C)C(=O)N[C@@H](Cc1ccccc1)[C@@H](O)C(=O)N[C@@H](CC(=O)O)C(=O)N[C@@H](C)C(=O)N[C@@H](CCC(=O)O)C(=O)O (H-[Dap](CO)VL[β3hPhe(2R-OH)]DAE-OH) | 84 nM |
| CC(C)C[C@H](NC(=O)[C@@H](NC(=O)[C@@H](N)CNC(=O)O)C(C)C)C(=O)N[C@@H](Cc1ccccc1)[C@@H](O)C(=O)Nc1cc(C(=O)O)cc(C(=O)O)c1 | 3.4 nM |
